Measured values from patent US6716836B2, “Non-nucleoside reverse transcriptase inhibitors” (Boehringer Ingelheim (Canada) Ltd., priority 2001, dated 2004).

Key:
[1] = target: T1, HIV-1 RT wild type (WT) (Human immunodeficiency virus type 1 group M subtype B, UniProt P04585); test: Reverse Transcriptase (RT) assay, wild type enzyme; assay type: biochemical
T1 construct: Heterodimeric RT was eluted using a descending gradient; made in house; host or cells: E. coli
Source text: (§1) Among the enzymes for which Human Immunodeficiency Virus (HIV-1) encodes is a reverse transcriptase (1), so-named because it transcribes a DNA copy from an RNA template. This activity can be quantitatively measured in a cell-free enzyme assay, which has been previously described (2), and is based upon the observation that reverse transcriptase is able to use a synthetic template poly r(C) primed with oligo d(G) to transcribe a radio-labelled, acid-precipitable DNA strand utilising ^3H-dGTP as a substrate. The assay described below utilises the wild type (WT) enzyme, which is the predominant form of the enzyme observed with patients infected with HIV-1. Utilisation of mutant RT enzymes (for example, Y181C, prepared by site-directed mutagenesis in which the tyrosine residue at codon 181 has been replaced by a cysteine residue, or the mutants K103N, V106A and Y188C) and analogous assay conditions allows compounds to be evaluated for their effectiveness at inhibiting the mutant enzymes.
(§2) The HIV-1 RT expression clone, pKRT2, was obtained from Yale University (3). An overnight culture, grown in 2×YT medium (37° C., 225 rpm) (4), supplemented with 100 μg/mL ampicillin for positive selection was used to inoculate the 2×YT medium. The culture was incubated (37° C., 225 rpm) until it reached an OD600 of 0.6-0.9. At that time, the repressor inhibitor IPTG (isopropyl P-D-thiogalactopyranoside) was added to 0.5 mM, and the mixture was incubated for an additional 2 hours.
(§3) Purification of recombinant reverse transcriptase was performed using a combination of methods previously described (5). This procedure is summarised briefly as follows: E. Coli containing RT-1 wt or RT-1 (Y181 C) were suspended in 50 mM MES, pH 6.0 containing 10% glycerol, lysed in a French press, centrifuged, and the supernates discarded. Lysate pellets were extracted with buffer A (50 mM MES, pH 6.0, 100 mM KCl, 50 mM KPi, 10% glycerol, 0.02% hexyl-β-glucoside), and re-centrifuged; nucleic acid in supernates was precipitated with 0.1% polyethylenimine. […] Bound RT was eluted with a gradient of 0 to 1.0M
(§4) (NH4)2 SO4 in buffer B. Heparin-Sepharose fractions containing RT were concentrated (Amicon YM-30 membrane), combined with equal volumes of 2.0M (NH4)2SO4 in buffer B and injected onto a 21.5×150 mm TSK Phenyl-5PW HIC HPLC column (Phenomenex). Heterodimeric RT was eluted using a descending gradient of 1.0M to 0M (NH4)2SO4 in buffer B, concentrated, and stored at 4° C.
(§5) The 2.4× concentrated stock reaction mixture was aliquoted and stored at −20° C. The mixture is stable and can be thawed for use in each assay. This enzyme assay has been adapted to a 96 well microtiter plate system, and has been previously described (6). Tris buffer (50 mM, pH 7.8), vehicle (solvent diluted to match the compound dilution), or compounds in vehicle were dispensed into 96-well microtiter plates (10 μL/well; 3 wells/compound). The HIV-1 RT enzyme was thawed, diluted in 50 mM Tris pH 7.8 containing 0.05% Chaps to give 1.5 nM enzyme and 25 μL were dispensed per well. Ten μL of 0.5M EDTA were added to the first three wells of the microtiter plate. EDTA chelates the Mg^2+ present and prevents reverse transcription. This group served as background polymerisation, which was subtracted, from all other groups. Twenty-five μl of the 2.4× reaction mixture was added to all wells and the assay was allowed to incubate at room temperature for 30 minutes. The assay was terminated by precipitating the DNA in each well with 60 μL of sodium pyrophosphate (2% w/v) in 10% trichloroacetic acid (TCA) (10% w/v). The microtiter plate was incubated for 15 minutes at 4° C. and the precipitate was harvested onto #30 glass fibre paper (Schleicher & Schuell) using a Tomtech 96-well harvester. The filters were dried, placed in plastic bags with Betaplate scintillation cocktail (Pharmacia/LKB) and counted in the Betaplate counter (Pharmacia/LKB).
(§6) The calculation for percent inhibition is as follows: [formula] […]

[2] = target: T2, HIV-1 RT double mutant K103N/Y181C (Human immunodeficiency virus type 1 group M subtype B, UniProt P04585, K690N/Y768C); test: Reverse Transcriptase (RT) assay, double mutant enzyme; assay type: biochemical
T2 construct: Heterodimeric RT was eluted using a descending gradient; made in house; host or cells: E. coli (inferred; the text describes only wild type and Y181C preparations)
Source text: as §1, §2, §3, §4, §5, §6

[3] = test system: HIV replication in T-lymphocytes, virus coding for mutant enzyme K103N/Y181C; test: ELISA (p24) assay for activity in cell culture, mutant virus; assay type: cell-based; settings: Human immunodeficiency virus 1, T-lymphocyte, read-out: EC50 K103N/Y181C
Protocol: (§7) ELISA Assay for Assessment of Activity in Cell Culture
(§8) Compounds of the invention were tested for their ability to inhibit HIV replication in cell culture. Viruses coding for Wild type and mutant enzymes were used. T-lymphocytes were infected with the virus, infected cells were incubated in the presence of varying amounts of compounds of the invention, and an ELISA assay for the viral protein p24 was used to quantify viral replication. Table 9 lists the results as EC50 (nM).

[4] = test system: HIV replication in T-lymphocytes, virus coding for wild type enzyme; test: ELISA (p24) assay for activity in cell culture, wild type virus; assay type: cell-based; settings: Human immunodeficiency virus 1, T-lymphocyte, read-out: EC50 WT RT
Protocol: as §7, §8

Question: For `CCN1c2ncc(CCOc3cccc4c3CS(=O)(=O)N4)cc2C(=O)N(C)c2cccnc21` [Compound 101], which IC50 [1] is on record?
Answer: < 0.1 µM

Question: What about the IC50 [2] of the same compound?
Answer: 0.1 to 1 µM

Question: And the EC50 [3]?
Answer: < 0.1 µM

Question: How did the IC50 [1] turn out when `CCN1c2ncc(CCOc3cccc4c3CS(=O)(=O)N4)cc2C(=O)N(C)c2ccc(F)nc21` [Compound 103] was run?
Answer: < 0.1 µM

Question: What about the IC50 [2] of the same compound?
Answer: 0.1 to 1 µM

Question: And the EC50 [4]?
Answer: < 0.1 µM

Question: What about the EC50 [3] of the same compound?
Answer: < 0.1 µM

Question: What does the source list for `CCN1c2ncc(CCOc3cccc4c3CS(=O)(=O)N4)cc2C(=O)Nc2c(C)cc(F)nc21` [Compound 110]?
Answer: IC50 [1]: < 0.1 µM; IC50 [2]: 0.1 to 1 µM; EC50 [4]: < 0.1 µM; EC50 [3]: < 0.1 µM

Question: How did the IC50 [1] turn out when `CCN1c2ncc(CCOc3cccc4c3CS(=O)(=O)N4C)cc2C(=O)Nc2c(C)cc(C)nc21` [Compound 117] was run?
Answer: < 0.1 µM

Question: And the IC50 [2]?
Answer: < 0.1 µM

Question: And the EC50 [4]?
Answer: < 0.1 µM

Question: `CCN1c2ncc(CCOc3cccc4c3CS(=O)(=O)N4CC(=O)O)cc2C(=O)N(C)c2cccnc21` [Compound 127] was tested. Which IC50 [1] did it give?
Answer: < 0.1 µM

Question: What about the IC50 [2] of the same compound?
Answer: 0.1 to 1 µM

Question: What about the EC50 [4] of the same compound?
Answer: < 0.1 µM

Question: And the EC50 [3]?
Answer: 0.1 to 1 µM

Question: With `CCN1c2ncc(CCOc3cccc4c3CS(=O)(=O)N4CCO)cc2C(=O)N(C)c2cccnc21` [Compound 129] as the compound, how does the IC50 [1] read?
Answer: < 0.1 µM

Question: And the IC50 [2]?
Answer: < 0.1 µM

Question: What about the EC50 [4] of the same compound?
Answer: < 0.1 µM

Question: And the EC50 [3]?
Answer: < 0.1 µM

Question: With `CCN1c2ncc(CCOc3cccc4c3CS(=O)(=O)N4Cc3cc[n+]([O-])cc3)cc2C(=O)N(C)c2cccnc21` [Compound 130] as the compound, how does the IC50 [1] read?
Answer: < 0.1 µM

Question: What about the IC50 [2] of the same compound?
Answer: < 0.1 µM

Question: What about the EC50 [4] of the same compound?
Answer: < 0.1 µM

Question: What about the EC50 [3] of the same compound?
Answer: < 0.1 µM

Question: With `CCN1c2ncc(CCOc3cccc4c3CS(=O)(=O)N4Cc3cccnc3)cc2C(=O)N(C)c2cccnc21` [Compound 131] as the compound, how does the IC50 [1] read?
Answer: < 0.1 µM

Question: And the IC50 [2]?
Answer: < 0.1 µM

Question: What about the EC50 [4] of the same compound?
Answer: < 0.1 µM

Question: And the EC50 [3]?
Answer: < 0.1 µM

Question: `CCN1c2ncc(CCOc3cccc4c3CS(=O)(=O)N4Cc3ccc[n+]([O-])c3)cc2C(=O)N(C)c2cccnc21` [Compound 132] was tested. Which IC50 [1] did it give?
Answer: < 0.1 µM

Question: What about the IC50 [2] of the same compound?
Answer: < 0.1 µM

Question: What about the EC50 [4] of the same compound?
Answer: < 0.1 µM

Question: What about the EC50 [3] of the same compound?
Answer: < 0.1 µM

Question: For `CCN1c2ncc(CCOc3cccc4c3CCS(=O)(=O)N4C(=O)N3CCOCC3)cc2C(=O)N(C)c2cccnc21` [Compound 618], which IC50 [1] is on record?
Answer: < 0.1 µM

Question: What about the IC50 [2] of the same compound?
Answer: < 0.1 µM

Question: `CCN1c2ncc(CCOc3cccc4c3CCS(=O)(=O)N4C(=O)N3CCCC3)cc2C(=O)N(C)c2cccnc21` [Compound 619] was tested. Which IC50 [1] did it give?
Answer: < 0.1 µM

Question: And the IC50 [2]?
Answer: < 0.1 µM

Question: What does the source list for `CCN1c2ncc(CCOc3cccc4c3CCS(=O)(=O)N4C(=O)N3CCN(C)CC3)cc2C(=O)N(C)c2cccnc21` [Compound 620]?
Answer: IC50 [1]: < 0.1 µM; IC50 [2]: < 0.1 µM

Question: How did the IC50 [1] turn out when `CCN1c2ncc(CCOc3cccc4c3CCS(=O)(=O)N4Cc3csc(C)n3)cc2C(=O)N(C)c2cccnc21` [Compound 622] was run?
Answer: < 0.1 µM

Question: And the IC50 [2]?
Answer: < 0.1 µM

Question: What does the source list for `CCN1c2ncc(CCOc3cccc4c3CCS(=O)(=O)N4CC(=O)N3CCCC3)cc2C(=O)N(C)c2cccnc21` [Compound 623]?
Answer: IC50 [1]: < 0.1 µM; IC50 [2]: < 0.1 µM

Question: What does the source list for `CCN1c2ncc(CCOc3cccc4c3CCS(=O)(=O)N4CS(C)(=O)=O)cc2C(=O)N(C)c2cccnc21` [Compound 627]?
Answer: IC50 [1]: < 0.1 µM; IC50 [2]: < 0.1 µM

Question: With `CCN1c2ncc(CCOc3cccc4c3CCS(=O)(=O)N4Cc3ccc[n+]([O-])c3)cc2C(=O)N(C)c2cccnc21` [Compound 632] as the compound, how does the IC50 [1] read?
Answer: < 0.1 µM

Question: What about the IC50 [2] of the same compound?
Answer: < 0.1 µM

Question: For `CCN1c2ncc(CCOc3cccc4c3CCS(=O)(=O)N4CCCC(N)=O)cc2C(=O)N(C)c2cccnc21` [Compound 635], which IC50 [1] is on record?
Answer: < 0.1 µM

Question: What about the IC50 [2] of the same compound?
Answer: < 0.1 µM

Question: With `CCN1c2ncc(CCOc3cccc4c3CCS(=O)(=O)N4Cc3ncc[nH]3)cc2C(=O)N(C)c2cccnc21` [Compound 642] as the compound, how does the IC50 [1] read?
Answer: < 0.1 µM

Question: What about the IC50 [2] of the same compound?
Answer: < 0.1 µM

Question: What does the source list for `CCN1c2ncc(CCOc3cccc4c3CCNS4(=O)=O)cc2C(=O)N(C)c2cccnc21` [Compound 712]?
Answer: IC50 [1]: < 0.1 µM; IC50 [2]: < 0.1 µM

Question: Which IC50 [1] does the source give for `CCN1c2ncccc2NC(=O)c2cc(CCOc3cccc4c3C=CS(=O)(=O)N4C)cnc21` [Compound 805] here?
Answer: < 0.1 µM

Question: What about the IC50 [2] of the same compound?
Answer: 0.1 to 1 µM

Question: For `CCN1C(=O)c2cc(CCOc3cccc4c3C=CS(=O)(=O)N4C)cnc2N(CC)c2ncccc21` [Compound 806], which IC50 [1] is on record?
Answer: < 0.1 µM

Question: And the IC50 [2]?
Answer: < 0.1 µM

Question: For `CCN1c2ncc(CCOc3cccc4c3C=CS(=O)(=O)N4CC)cc2C(=O)N(C)c2cccnc21` [Compound 807], which IC50 [1] is on record?
Answer: < 0.1 µM

Question: What about the IC50 [2] of the same compound?
Answer: < 0.1 µM
